Read-outs that look alike come from different tables or passages of the source.
Molecular target: T1, Human TREM2 (Homo sapiens, UniProt Q9NZC2)
T1 construct: expressed in transfected cells
Experiment: Human TREM2 activity: cellular phosphorylation of Syk (AlphaLISA SureFire Ultra p-SYK) in HEK293/DAP12+TREM2 stable cell line
Format: cell-based
Details: for Emax: maximal response relative to reference agonist example 1B (remaining examples)
Method in brief: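 The read-out was p-Syk (Tyr525/526), measured by AlphaLISA in lysates of a stable HEK293/DAP12+TREM2 clone. Cells (10,000/well, plated the day before) received compound for 30 min at 37 °C. Dosing used 8 points in quadruplicate, top 100 μM with 1:6 dilution, 0.5% final DMSO.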

[1] = phospho-Syk AlphaLISA signal, HEK293/DAP12+TREM2 cells, concentration giving 50% of maximal response, read-out: EC50

T1 sequence (Q9NZC2 19-230): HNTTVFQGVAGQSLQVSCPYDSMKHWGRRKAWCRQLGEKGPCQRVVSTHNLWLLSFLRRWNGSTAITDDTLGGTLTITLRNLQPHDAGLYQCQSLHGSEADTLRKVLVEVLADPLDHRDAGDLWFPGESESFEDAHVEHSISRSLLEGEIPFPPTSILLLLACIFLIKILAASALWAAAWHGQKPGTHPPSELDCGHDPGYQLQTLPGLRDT
T1 sequence (O43914 22-113 partner): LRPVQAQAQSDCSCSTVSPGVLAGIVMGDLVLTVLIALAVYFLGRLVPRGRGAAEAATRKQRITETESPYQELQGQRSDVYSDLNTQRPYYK

SMILES	Emax (HEK293, read-out: Emax) [%]	EC50 [1] [µM]	Emax	EC50 [µM]
Cc1nc2c(-c3ccc(F)c(F)c3F)nc(N3CCOC(c4cnn(C)c4)C3)nc2c(=O)n1C (stereo not drawn) [Example 6, 2,3-dimethyl-6-(2-(1-methyl-1H-pyrazol-4-yl)morpholino)-8-(2,3,4-trifluorophenyl)pyrimido[5,4-d]pyrimidin-4(3H)-one]	75 to 110	> 1	–	–
Cc1nc2c(nc(N3CCOC(c4cnn(C)c4)C3)nc2[C@H]2CC[C@@H](C)CC2)c(=O)n1C (stereo partly drawn) [Example 12a, 2,3-dimethyl-6-(2-(1-methyl-1H-pyrazol-4-yl)morpholino)-8-((1s,4s)-4-methylcyclohexyl)pyrimido[5,4-d]pyrimidin-4 (3H)-one]	75 to 110	> 1	–	–
Cc1nc2c(-c3ccc(Cl)cc3F)nc(N3CC(COc4cnn(C)c4)C3)nc2c(=O)n1C [Example 15, 8-(4-chloro-2-fluorophenyl)-2,3-dimethyl-6-(3-(((1-methyl-1H-pyrazol-4-yl)oxy)methyl)azetidin-1-yl)pyrimido[5,4-d]pyrimidin-4 (3H)-one]	< 75	> 1	–	–
Cc1nc2c(-c3ccc(Cl)cc3F)nc(N3CC(Oc4cnn(C)c4)C3)nc2c(=O)n1C [Example 16, 8-(4-chloro-2-fluorophenyl)-2,3-dimethyl-6-(3-((1-methyl-1H-pyrazol-4-yl)oxy)azetidin-1-yl)pyrimido[5,4-d]pyrimidin-4 (3H)-one]	75 to 110	0.1 to 1	–	–
Cc1nc2c(-c3ccc(Cl)cc3F)nc(C3CCOC(c4cnn(C)c4)C3)nc2c(=O)n1C (stereo not drawn) [Example 17, 8-(4-chloro-2-fluorophenyl)-2,3-dimethyl-6-(2-(1-methyl-1H-pyrazol-4-yl)tetrahydro-2H-pyran-4-yl)pyrimido[5,4-d]pyrimidin-4 (3H)-one]	75 to 110	0.1 to 1	–	–
Cc1nc2c(-c3ccc(Cl)cc3F)nc(N3CC(OCc4cnn(C)c4)C3)nc2c(=O)n1C [Example 18, 8-(4-chloro-2-fluorophenyl)-2,3-dimethyl-6-(3-((1-methyl-1H-pyrazol-4-yl)methoxy)azetidin-1-yl)pyrimido[5,4-d]pyrimidin-4 (3H)-one]	< 75	> 1	–	–
Cc1nc2c(-c3ccc(Cl)cc3F)nc(N3CCN(C)C(c4cnn(C)c4)C3)nc2c(=O)n1C (stereo not drawn) [Example 29, 8-(4-chloro-2-fluorophenyl)-2,3-dimethyl-6-(4-methyl-3-(1-methyl-1H-pyrazol-4-yl)piperazin-1-yl)pyrimido[5,4-d]pyrimidin-4(3H)-one]	< 75	0.1 to 1	–	–
CCN1CCN(c2nc(-c3ccc(Cl)cc3F)c3nc(C)n(C)c(=O)c3n2)CC1c1cnn(C)c1 (stereo not drawn) [Example 30, 8-(4-chloro-2-fluorophenyl)-6-(4-ethyl-3-(1-methyl-1H-pyrazol-4-yl)piperazin-1-yl)-2,3-dimethylpyrimido[5,4-d]pyrimidin-4(3H)-one]	75 to 110	0.1 to 1	–	–
COCCN1CCN(c2nc(-c3ccc(Cl)cc3F)c3nc(C)n(C)c(=O)c3n2)CC1c1cnn(C)c1 (stereo not drawn) [Example 34, 8-(4-chloro-2-fluorophenyl)-6-(4-(2-methoxyethyl)-3-(1-methyl-1H-pyrazol-4-yl)piperazin-1-yl)-2,3-dimethylpyrimido[5,4-d]pyrimidin-4(3H)-one]	< 75	0.1 to 1	–	–
Cc1ncc(C2CN(c3nc(-c4ccc(Cl)cc4F)c4nc(C)n(C)c(=O)c4n3)CCO2)cn1 (stereo not drawn) [Example 35, 8-(4-chloro-2-fluorophenyl)-2,3-dimethyl-6-(2-(2-methylpyrimidin-5-yl)morpholino)pyrimido[5,4-d]pyrimidin-4 (3H)-one]	–	–	+ (<75%)	0.01 to 0.1
Cc1nc2c(-c3ccc(Cl)cc3F)nc(N3CCOC(c4ccn(C)n4)C3)nc2c(=O)n1C (stereo not drawn) [Example 36, 8-(4-chloro-2-fluorophenyl)-2,3-dimethyl-6-(2-(1-methyl-1H-pyrazol-3-yl)morpholino)pyrimido[5,4-d]pyrimidin-4 (3H)-one]	–	–	++ (75-110%)	0.1 to 1

More lines, main results first:

Emax (HEK293, read-out: Emax) [%]	EC50 [1] [µM]	SMILES	Emax	EC50 [µM]
75 to 110	0.001 to 0.01	Cc1nc2c(-c3ccc(Cl)cc3F)nc(N3CCOC(c4cnn(C5CC5)c4)C3)nc2c(=O)n1C (stereo not drawn) [Example 2, 8-(4-chloro-2-fluorophenyl)-6-(2-(1-cyclopropyl-1H-pyrazol-4-yl)morpholino)-2,3-dimethylpyrimido[5,4-d]pyrimidin-4 (3H)-one]	–	–
75 to 110	0.001 to 0.01	Cc1cc(C2CN(c3nc(-c4ccc(Cl)cc4F)c4nc(C)n(C)c(=O)c4n3)CCO2)ccn1 (stereo not drawn) [Example 3, 8-(4-chloro-2-fluorophenyl)-2,3-dimethyl-6-(2-(2-methylpyridin-4-yl)morpholino)pyrimido[5,4-d]pyrimidin-4 (3H)-one]	–	–
75 to 110	0.1 to 1	Cc1nc2c(-c3ccc(C(F)(F)F)nc3)nc(N3CCOC(c4cnn(C)c4)C3)nc2c(=O)n1C (stereo not drawn) [Example 4, 2,3-dimethyl-6-(2-(1-methyl-1H-pyrazol-4-yl)morpholino)-8-(6-(trifluoromethyl)pyridin-3-yl)pyrimido[5,4-d]pyrimidin-4(3H)-one]	–	–
< 75	0.01 to 0.1	Cc1nc2c(-c3ccc(F)cc3F)nc(N3CCOC(c4cnn(C)c4)C3)nc2c(=O)n1C (stereo not drawn) [Example 5, 8-(2,4-difluorophenyl)-2,3-dimethyl-6-(2-(1-methyl-1H-pyrazol-4-yl)morpholino)pyrimido[5,4-d]pyrimidin-4(3H)-one]	–	–
< 75	0.1 to 1	Cc1nc2c(-c3cc(F)c(F)cc3F)nc(N3CCOC(c4cnn(C)c4)C3)nc2c(=O)n1C (stereo not drawn) [Example 7, 2,3-dimethyl-6-(2-(1-methyl-1H-pyrazol-4-yl)morpholino)-8-(2,4,5-trifluorophenyl)pyrimido[5,4-d]pyrimidin-4(3H)-one]	–	–
< 75	0.1 to 1	Cc1nc2c(-c3cc(F)c(F)c(F)c3)nc(N3CCOC(c4cnn(C)c4)C3)nc2c(=O)n1C (stereo not drawn) [Example 8, 2,3-dimethyl-6-(2-(1-methyl-1H-pyrazol-4-yl)morpholino)-8-(3,4,5-trifluorophenyl)pyrimido[5,4-d]pyrimidin-4(3H)-one]	–	–
< 75	0.1 to 1	Cc1nc2c(-c3ccc(F)c(F)c3)nc(N3CCOC(c4cnn(C)c4)C3)nc2c(=O)n1C (stereo not drawn) [Example 9, 8-(3,4-difluorophenyl)-2,3-dimethyl-6-(2-(1-methyl-1H-pyrazol-4-yl)morpholino)pyrimido[5,4-d]pyrimidin-4(3H)-one]	–	–
75 to 110	0.1 to 1	Cc1nc2c(-c3ccc(C(F)(F)F)cc3F)nc(N3CCOC(c4cnn(C)c4)C3)nc2c(=O)n1C (stereo not drawn) [Example 10, 8-(2-fluoro-4-(trifluoromethyl)phenyl)-2,3-dimethyl-6-(2-(1-methyl-1H-pyrazol-4-yl)morpholino)pyrimido[5,4-d]pyrimidin-4(3H)-one]	–	–
75 to 110	0.1 to 1	Cc1nc2c(C3CCC(F)(F)CC3)nc(N3CCOC(c4cnn(C)c4)C3)nc2c(=O)n1C (stereo not drawn) [Example 11, 8-(4,4-difluorocyclohexyl)-2,3-dimethyl-6-(2-(1-methyl-1H-pyrazol-4-yl)morpholino)pyrimido[5,4-d]pyrimidin-4 (3H)-one]	–	–
–	0.1 to 1	Cc1nc2c(C3CCC(C)CC3)nc(N3CCOC(c4cnn(C)c4)C3)nc2c(=O)n1C (stereo not drawn) [Example 12b, 2,3-dimethyl-6-(2-(1-methyl-1H-pyrazol-4-yl)morpholino)-8-((1r,4r)-4-methylcyclohexyl)pyrimido[5,4-d]pyrimidin-4 (3H)-one]	++ (75-110%)	–
75 to 110	0.001 to 0.01	Cc1nc2c(-c3ccc(Cl)cc3F)nc(N3CCC(F)(F)C(c4cnn(C)c4)C3)nc2c(=O)n1C (stereo not drawn) [Example 13, 8-(4-chloro-2-fluorophenyl)-6-(4,4-difluoro-3-(1-methyl-1H-pyrazol-4-yl)piperidin-1-yl)-2,3-dimethylpyrimido[5,4-d]pyrimidin-4 (3H)-one]	–	–
75 to 110	0.01 to 0.1	Cc1nc2c(-c3ccc(Cl)cc3F)nc(N3CCN(CCF)C(c4cnn(C)c4)C3)nc2c(=O)n1C (stereo not drawn) [Example 31, 8-(4-chloro-2-fluorophenyl)-6-(4-(2-fluoroethyl)-3-(1-methyl-1H-pyrazol-4-yl)piperazin-1-yl)-2,3-dimethylpyrimido[5,4-d]pyrimidin-4(3H)-one]	–	–
< 75	0.01 to 0.1	Cc1nc2c(-c3ccc(Cl)cc3F)nc(N3CCN(CC(F)F)C(c4cnn(C)c4)C3)nc2c(=O)n1C (stereo not drawn) [Example 32, 8-(4-chloro-2-fluorophenyl)-6-(4-(2,2-difluoroethyl)-3-(1-methyl-1H-pyrazol-4-yl)piperazin-1-yl)-2,3-dimethylpyrimido[5,4-d]pyrimidin-4(3H)-one]	–	–
< 75	0.01 to 0.1	Cc1nc2c(-c3ccc(Cl)cc3F)nc(N3CCN(CC(F)(F)F)C(c4cnn(C)c4)C3)nc2c(=O)n1C (stereo not drawn) [Example 33, 8-(4-chloro-2-fluorophenyl)-2,3-dimethyl-6-(3-(1-methyl-1H-pyrazol-4-yl)-4-(2,2,2-trifluoroethyl)piperazin-1-yl)pyrimido[5,4-d]pyrimidin-4(3H)-one]	–	–
< 75	0.01 to 0.1	Cc1nc2c(-c3ccc(Cl)cc3F)nc(N3CCOC(c4cn[nH]c4)C3)nc2c(=O)n1C (stereo not drawn) [Example 39, 6-(2-(1H-pyrazol-4-yl)morpholino)-8-(4-chloro-2-fluorophenyl)-2,3-dimethylpyrimido[5,4-d]pyrimidin-4 (3H)-one]	–	–
75 to 110	0.01 to 0.1	Cc1nc2c(-c3ccc(Cl)cc3F)nc(N3CCOC(c4cnn(C5COC5)c4)C3)nc2c(=O)n1C (stereo not drawn) [Example 40, 8-(4-chloro-2-fluorophenyl)-2,3-dimethyl-6-(2-(1-(oxetan-3-yl)-1H-pyrazol-4-yl)morpholino)pyrimido[5,4-d]pyrimidin-4 (3H)-one]	–	–

Reference: patent US20260200926A1, “TREM2 MODULATORS” (Muna Therapeutics ApS, priority 2022, published 2026)
